Molecules are shown by their SMILES.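 Assay format: 96-well plates, 48-hour exposure. Definition used: TGI = concentration required for complete inhibition of growth.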

Some test systems named below: HCT-15 colon; HT29 colon; MDA-N; UACC-62 melanoma; ACHN renal; IGROV1 ovarian; SF-539 CNS; HCC-2998 colon; NCI-H226 lung.
Assay in all cases: NCI tumour cell line growth inhibition, 48 h

Take `Cc1c2ccccc2nc2[nH]c3ccncc3c12`: the TGI in the experiment with HCT-15 colon was greater than 100 µM; in the experiment on HT29 colon, greater than 100 µM; with MDA-N it was greater than 100 µM; with UACC-62 melanoma, 74.8 µM; in the experiment on ACHN renal, 77.2 µM; in the experiment on IGROV1 ovarian, greater than 100 µM. The molecule further returned a TGI in the experiment on SF-539 CNS greater than 100 µM.
In the case of `Cc1ccc(-c2n[nH]c(CC#N)n2)cc1`, the TGI in the experiment with HCT-15 colon, in the experiment on HT29 colon, with UACC-62 melanoma, in the experiment with ACHN renal, in the experiment on IGROV1 ovarian and with HCC-2998 colon was greater than 100 µM in each case. This molecule also yielded a TGI in the experiment with SF-539 CNS greater than 100 µM.
With `COc1ccc(/C=C/c2cc(=O)cc(/C=C/c3ccc(OC)c(O)c3)o2)cc1O`, the TGI was 13.6 µM in the experiment on HCT-15 colon; 4.1 µM in the experiment on HT29 colon; 3.53 µM in the experiment on UACC-62 melanoma; 20.7 µM in the experiment with NCI-H226 lung; 6.85 µM in the experiment with ACHN renal; 13.3 µM with IGROV1 ovarian. The results for the TGI in the experiment with HCC-2998 colon and in the experiment on SF-539 CNS were 3.32 µM and 3.47 µM, respectively.
Turning to `Cc1nnc2sc(-c3ccc(N)cc3)nn12`, the TGI in the experiment with HCT-15 colon, with HT29 colon, in the experiment with UACC-62 melanoma, in the experiment with NCI-H226 lung, in the experiment with ACHN renal and with IGROV1 ovarian was greater than 100 µM throughout. The TGI in the experiment on HCC-2998 colon and in the experiment on SF-539 CNS was greater than 100 µM throughout.
For the molecule `N[C@H]1CCc2c1nc1c(c2-c2ccccc2)CC[C@@H]1N`, the TGI was greater than 100 µM in the experiment on HCT-15 colon; 26 µM with HT29 colon; greater than 100 µM in the experiment with NCI-H226 lung; greater than 100 µM with ACHN renal; 31.4 µM in the experiment with IGROV1 ovarian; 49.2 µM with HCC-2998 colon. In addition, the TGI with SF-539 CNS was 31.1 µM.
For the molecule `CCCCCCCCCCCCCCCCCCNc1ccn(C2OC(COP(=O)(O)OCCCCCCCCCCCCCCCC)C(O)C2O)c(=O)n1` (stereo unspecified), the TGI in the experiment on HCT-15 colon, in the experiment with HT29 colon, with UACC-62 melanoma, in the experiment on NCI-H226 lung, with ACHN renal and in the experiment on IGROV1 ovarian was greater than 100 µM throughout. Further, the TGI with HCC-2998 colon and in the experiment on SF-539 CNS was greater than 100 µM throughout.
As to `CCOC(=O)c1c(N2CCOCC2)[nH]c(=O)c(C(c2ccc(N(C)C)cc2)c2c(O)c(C(=O)OCC)c(N3CCOCC3)[nH]c2=O)c1O`, the TGI in the experiment on HCT-15 colon, with HT29 colon, in the experiment with UACC-62 melanoma, with NCI-H226 lung, in the experiment with ACHN renal and with HCC-2998 colon was greater than 100 µM each time. Besides, the TGI in the experiment with SF-539 CNS is greater than 100 µM.
For the molecule `CCOC(=O)c1c(SCC#N)n(-c2ccccc2)c(=S)n(-c2ccccc2)c1=O`, the TGI in the experiment with HCT-15 colon, in the experiment on HT29 colon, in the experiment with MDA-N, in the experiment on UACC-62 melanoma, in the experiment on NCI-H226 lung and with ACHN renal was greater than 100 µM in each case. Further, in the experiment on IGROV1 ovarian, the TGI is greater than 100 µM.
Turning to `CNC(=O)OC(C)CN1c2ccccc2Sc2ccccc21` (stereo unspecified), the TGI in the experiment with HCT-15 colon, in the experiment with HT29 colon, in the experiment on UACC-62 melanoma, with NCI-H226 lung, in the experiment with ACHN renal and in the experiment with IGROV1 ovarian was greater than 100 µM in each case. Moreover, the TGI with HCC-2998 colon and in the experiment on SF-539 CNS was greater than 100 µM throughout.
Consider `O=c1oc2ccccc2c(O)c1C(c1ccc([N+](=O)[O-])cc1)c1c(O)c2ccccc2oc1=O`, for which the TGI with HCT-15 colon, in the experiment with HT29 colon, in the experiment on MDA-N, in the experiment with UACC-62 melanoma, with NCI-H226 lung and with IGROV1 ovarian was greater than 100 µM in each case.
Consider `CCOC(=O)C1=C(C)N(Cc2ccc(Cl)cc2Cl)C2(O)C(OC)CC(=O)C3C(=O)N(c4ccccc4)C(=O)C132` (stereo unspecified), for which the TGI with HCT-15 colon worked out at 2.64 µM; in the experiment with HT29 colon, 4 µM; in the experiment with UACC-62 melanoma it was 11.9 µM; in the experiment on NCI-H226 lung it was 9.02 µM; in the experiment on ACHN renal, 15.2 µM; in the experiment with IGROV1 ovarian, 16.9 µM. The TGI was 5.29 µM with HCC-2998 colon and 12.7 µM in the experiment on SF-539 CNS.
`Cc1ccccc1N=Nc1ccc(N=Nc2c(O)ccc3cc(S(=O)(=O)O)cc(S(=O)(=O)O)c23)c(C)c1`: the TGI in the experiment on HCT-15 colon, in the experiment with HT29 colon, in the experiment on UACC-62 melanoma, in the experiment on NCI-H226 lung, with ACHN renal and with IGROV1 ovarian was greater than 100 µM throughout. For the same molecule, the TGI with HCC-2998 colon and in the experiment on SF-539 CNS was greater than 100 µM throughout.
Take `Oc1ccc2ccccc2c1N=Nc1ccc(N=Nc2ccccc2)cc1`: the TGI in the experiment with HCT-15 colon, in the experiment on HT29 colon, in the experiment on MDA-N, in the experiment with UACC-62 melanoma, in the experiment with NCI-H226 lung and in the experiment with ACHN renal was greater than 100 µM each time. For the same molecule, the TGI with IGROV1 ovarian is greater than 100 µM.
